In patent publication US20170029366A1, “INHIBITORS OF HISTONE LYSINE SPECIFIC DEMETHYLASE (LSD1) AND HISTONE DEACETYLASES (HDACS)” (THE JOHNS HOPKINS UNIVERSITY, priority 2014, published 2017):
Where “and” joins values, the source holds several entries; their conditions need not be identical. Equal entries are not always repeated.

How the values were obtained:
[1] = system: H3K4Me2 in LNCaP cells; assay: Western blot of histone H3 marks in LNCaP cells; assay type: cell-based
[2] = system: H460 cells; assay: [3H] thymidine incorporation assay in H460 cells; assay type: cell-based; conditions: Homo sapiens, NCI-H460, 48 h, read-out: IC50 of cellular proliferation rate (3H-thymidine incorporation)
[3] = system: LNCaP cells; assay: [3H] thymidine incorporation assay in LNCaP cells; assay type: cell-based; conditions: Homo sapiens, 48 h, read-out: IC50 of cellular proliferation rate (3H-thymidine incorporation)
[4] = system: H3K4Me2 in A549 cells; assay: Western blot of H3K4Me2 in A549 cells; assay type: cell-based; conditions: 48 h
[5] = system: Immature primary cortical neurons; assay: Oxidative toxicity (HCA) and neuron viability assay (MTT); assay type: cell-based, Sprague Dawley rats; conditions: 0.5 μM, 5 mM HCA, MTT
[6] = system: H3K4Me2 in H460 cells; assay: Western blot of H3K4Me2 in H460 cells; assay type: cell-based; conditions: 48 h, compared with LNCaP
[7] = target: T1, GST-LSD1 (Homo sapiens, UniProt O60341); assay: MassSQUIRM LSD1 inhibition assay; assay type: biochemical; design: made in house; host or cells: E. coli; conditions: 50 μM inhibitor, 215 nM GST-LSD1, 30 min, 25° C.
[8] = target: T1, GST-LSD1
[9] = target: T2, MAO-B (Homo sapiens, UniProt P27338); assay: MAO-B activity and inhibition assay (peroxidase-coupled, tyramine); assay type: biochemical
T2 construct: purchased Sigma M 7441
T2 sequence (P27338 1-520): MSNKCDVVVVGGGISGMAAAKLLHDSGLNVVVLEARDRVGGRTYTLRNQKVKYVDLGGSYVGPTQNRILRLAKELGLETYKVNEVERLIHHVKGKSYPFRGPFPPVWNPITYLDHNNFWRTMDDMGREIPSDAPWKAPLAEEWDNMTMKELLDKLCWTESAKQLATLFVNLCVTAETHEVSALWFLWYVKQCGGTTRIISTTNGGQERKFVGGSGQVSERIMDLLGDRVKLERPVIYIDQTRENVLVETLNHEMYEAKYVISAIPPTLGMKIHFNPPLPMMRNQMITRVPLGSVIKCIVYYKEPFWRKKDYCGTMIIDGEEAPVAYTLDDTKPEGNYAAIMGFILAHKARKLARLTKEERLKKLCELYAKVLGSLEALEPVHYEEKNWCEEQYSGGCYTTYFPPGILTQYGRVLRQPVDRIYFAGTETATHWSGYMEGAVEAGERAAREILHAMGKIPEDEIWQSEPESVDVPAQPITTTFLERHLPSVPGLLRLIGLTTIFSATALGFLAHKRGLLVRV

[10] = system: H3K4Me2 in MB-231 cells; assay: Western blot of H3K4Me2 in MB-231 cells; assay type: cell-based; conditions: 48 h
[11] = target: T3, MAO-A (Homo sapiens, UniProt P21397); assay: MAO-A activity and inhibition assay (peroxidase-coupled, tyramine); assay type: biochemical
T3 construct: purchased Sigma M 7316
T3 sequence (P21397 1-527): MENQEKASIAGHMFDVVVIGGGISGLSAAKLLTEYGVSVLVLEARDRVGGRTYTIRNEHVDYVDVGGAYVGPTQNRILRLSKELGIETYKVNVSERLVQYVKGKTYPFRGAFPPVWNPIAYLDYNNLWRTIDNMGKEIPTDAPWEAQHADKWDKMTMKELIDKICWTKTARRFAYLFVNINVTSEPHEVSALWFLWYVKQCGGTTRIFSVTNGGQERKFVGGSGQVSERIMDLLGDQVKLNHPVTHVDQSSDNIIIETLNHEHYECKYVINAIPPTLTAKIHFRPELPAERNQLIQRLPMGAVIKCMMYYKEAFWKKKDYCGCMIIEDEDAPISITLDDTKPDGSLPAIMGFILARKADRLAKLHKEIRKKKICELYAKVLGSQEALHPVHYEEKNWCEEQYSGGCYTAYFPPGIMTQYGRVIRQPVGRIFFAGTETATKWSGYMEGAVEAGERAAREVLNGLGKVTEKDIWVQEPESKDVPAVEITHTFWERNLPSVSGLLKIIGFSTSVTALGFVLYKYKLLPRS

EC50 ([1]; Homo sapiens, 48 h, Western blot, read-out: EC50 of increase in H3K4Me2 signal): ~2000 nM | IC50 [2]: 14 µM | IC50 [3]: 16 µM | LSD1 inhibition in MassSQUIRM assay (in words) [7]: very substantial LSD1 inhibition | k(inact) ([8]; GST-LSD1, peroxidase-coupled assay, dihydrochloride): 0.15 min⁻¹ and 0.15 ± 0.017 min⁻¹ | LSD1 inhibitory potency (in words) ([8]; structure-activity comment on Table 1): most potent LSD1 inhibitor | k(inact) [9]: 0.26 ± 0.14 min⁻¹ | k(inact) [11]: 0.30 ± 0.11 min⁻¹
Compound: Cl.Cl.NNCCc1ccc(NC(=O)CCCc2ccccc2)cc1 [Compound 12d, N-[4-(2-Hydrazinylethyl)phenyl]-4-phenylbutanamide dihydrochloride]
time of compound exposure at which changes in H3K4Me2 could be detected ([1]; 10 μM): ≤ 6 h | concentration required for reproducible increases in H3K4Me2 [4]: 20 µM | survival of neurons after HCA-treatment [5]: significantly enhanced survival of neurons | effects on H3K4Me2 levels (in words) [6]: comparable dose-response effects | concentration required for reproducible increases in H3K4Me2 [10]: 20 µM
